Experimental data reported in US4170642A, “Derivatives of kanamycin A” (Zaidan Hojin Biseibutsu Kagaku Kenkyu Kai, priority 1974, dated 1979).
Values after ≈ are worked out from the molar mass of the structure shown.

How the values were obtained:
Assay type in all cases: cell-based
[1] = system: Pseudomonas aeruginosa TI-13; assay: MIC by serial dilution method on nutrient agar; settings: for MIC: TI13, nutrient agar, 37° C
Protocol: (§1) The minimum inhibitory concentrations (MIC) of 1-AHB-6'-MKM and 1-AHB-6'-EKM against various micro-organisms were determined by the serial dilution method using a nutrient agar medium at 37° C.

[2] = system: Klebsiella pneumoniae 22#3038; assay: MIC by serial dilution method on nutrient agar; settings: for MIC: nutrient agar, 37° C
Protocol: as §1

[3] = system: Escherichia coli JR66/W677; assay: MIC by serial dilution method on nutrient agar; settings: for MIC: nutrient agar, 37° C
Protocol: as §1

[4] = system: Escherichia coli K-12 ML1630; assay: MIC by serial dilution method on nutrient agar; settings: for MIC: K12ML1630, nutrient agar, 37° C
Protocol: as §1

[5] = system: Escherichia coli K-12 ML1629; assay: MIC by serial dilution method on nutrient agar; settings: for MIC: K12ML1629, nutrient agar, 37° C
Protocol: as §1

[6] = system: Pseudomonas aeruginosa GN315; assay: MIC by serial dilution method on nutrient agar; settings: for MIC: nutrient agar, 37° C
Protocol: as §1

[7] = system: some strains of gram-negative bacteria carrying R factor Staphylococcus aureus and Pseudomonas aeruginosa; assay: resistance of strains isolated from patients
[8] = system: Staphylococcus aureus FDA209P; assay: MIC by serial dilution method on nutrient agar; settings: 37° C
Protocol: as §1

Escherichia coli K-12 R5 = assay: MIC by serial dilution method on nutrient agar; settings: K12R5
Protocol: as §1

[9] = system: Escherichia coli K-12 ML1410; assay: MIC by serial dilution method on nutrient agar; settings: K12ML1410, 37° C
Protocol: as §1

[10] = system: Pseudomonas aeruginosa No. 12; assay: MIC by serial dilution method on nutrient agar; settings: 37° C
Protocol: as §1

Escherichia coli W677 = assay: MIC by serial dilution method on nutrient agar; settings: 37° C
Protocol: as §1

[11] = system: Mycobacterium smegmatis ATCC607; assay: MIC by serial dilution method on nutrient agar; settings: Mycolicibacterium smegmatis, 37° C
Protocol: as §1

[12] = system: Pseudomonas aeruginosa A3; assay: MIC by serial dilution method on nutrient agar; settings: 37° C
Protocol: as §1

Escherichia coli K-12 = assay: MIC by serial dilution method on nutrient agar; settings: K12, 37° C
Protocol: as §1

[13] = system: Escherichia coli LA290 R56; assay: MIC by serial dilution method on nutrient agar; settings: LA290R56
Protocol: as §1

[14] = system: Pseudomonas aeruginosa 99; assay: MIC by serial dilution method on nutrient agar; settings: 37° C
Protocol: as §1

[15] = system: Escherichia coli LA290 R55; assay: MIC by serial dilution method on nutrient agar; settings: LA290R55
Protocol: as §1

[16] = system: Klebsiella pneumoniae PCI 602; assay: MIC by serial dilution method on nutrient agar; settings: PCI602, 37° C
Protocol: as §1

[17] = system: Escherichia coli LA290 R64; assay: MIC by serial dilution method on nutrient agar; settings: LA290R64
Protocol: as §1

Structure (SMILES) | MIC [1] [µg/mL] | MIC [8] [µg/mL] | MIC [2] [µg/mL] | MIC (Escherichia coli K-12 R5) [µg/mL] | MIC [9] [µg/mL] | MIC [10] [µg/mL] | MIC (Escherichia coli W677) [µg/mL] | MIC [11] [µg/mL] | MIC [12] [µg/mL] | MIC (Escherichia coli K-12) [µg/mL] | MIC [13] [µg/mL] | MIC [14] [µg/mL] | MIC [3] [µg/mL] | MIC [15] [µg/mL] | MIC [4] [µg/mL] | MIC [5] [µg/mL] | MIC [16] [µg/mL] | MIC [17] [µg/mL] | MIC [6] [µg/mL] | further results
CNC[C@H]1O[C@H](O[C@H]2[C@H](O)[C@@H](O[C@H]3O[C@H](CO)[C@@H](O)[C@H](N)[C@H]3O)[C@H](N)C[C@@H]2N)[C@H](O)[C@@H](O)[C@@H]1O [6'-N-methylkanamycin, reference compound] |  |  |  |  |  |  |  |  |  |  |  |  |  |  |  |  |  |  |  | inhibition of kanamycin-resistant strain [1]: does not inhibit; inhibition of kanamycin-resistant strain [2]: does not inhibit; inhibition of kanamycin-resistant strain [3]: does not inhibit; inhibition of kanamycin-resistant strain [4]: does not inhibit; inhibition of kanamycin-resistant strain [5]: does not inhibit; inhibition of kanamycin-resistant strain [6]: does not inhibit
NC[C@H]1O[C@H](O[C@H]2[C@H](O)[C@@H](O[C@H]3O[C@H](CO)[C@@H](O)[C@H](N)[C@H]3O)[C@H](N)C[C@@H]2N)[C@H](O)[C@@H](O)[C@@H]1O [kanamycin] |  |  |  |  |  |  |  |  |  |  |  |  |  |  |  |  |  |  |  | resistance of strains [7]: resistant
CCNC[C@H]1O[C@H](O[C@H]2[C@H](O)[C@@H](O[C@H]3O[C@H](CO)[C@@H](O)[C@H](N)[C@H]3O)[C@H](NC(=O)[C@@H](O)CCN)C[C@@H]2N)[C@H](O)[C@@H](O)[C@@H]1O [1-AHB-6'-EKM, 1-N-(L-4-amino-2-hydroxybutyryl)-6'-N-ethylkanamycin] | 50 (≈ 81.5 µM) | 1.56 (≈ 2.54 µM) | 25 (≈ 40.7 µM) | 1.56 (≈ 2.54 µM) | 3.12 (≈ 5.08 µM) | 25 (≈ 40.7 µM) | 1.56 (≈ 2.54 µM) | 3.12 (≈ 5.08 µM) | 25 (≈ 40.7 µM) | 1.56 (≈ 2.54 µM) | 1.56 (≈ 2.54 µM) | 100 (≈ 163 µM) | 25 (≈ 40.7 µM) | 3.12 (≈ 5.08 µM) | 6.25 (≈ 10.2 µM) | 3.12 (≈ 5.08 µM) | 1.56 (≈ 2.54 µM) | 1.56 (≈ 2.54 µM) | 100 (≈ 163 µM) | 
CNC[C@H]1O[C@H](O[C@H]2[C@H](O)[C@@H](O[C@H]3O[C@H](CO)[C@@H](O)[C@H](N)[C@H]3O)[C@H](NC(=O)[C@@H](O)CCN)C[C@@H]2N)[C@H](O)[C@@H](O)[C@@H]1O [1-AHB-6'-MKM, 1-N-(L-4-amino-2-hydroxybutyryl)-6'-N-methylkanamycin] | 12.5 (≈ 20.8 µM) | 0.78 (≈ 1.3 µM) | 6.25 (≈ 10.4 µM) | 0.78 (≈ 1.3 µM) | 1.56 (≈ 2.6 µM) | 3.12 (≈ 5.2 µM) | 1.56 (≈ 2.6 µM) | 0.39 (≈ 0.65 µM) | 6.25 (≈ 10.4 µM) | 0.39 (≈ 0.65 µM) | 0.78 (≈ 1.3 µM) | 12.5 (≈ 20.8 µM) | 6.25 (≈ 10.4 µM) | 1.56 (≈ 2.6 µM) | 1.56 (≈ 2.6 µM) | 0.78 (≈ 1.3 µM) | 0.78 (≈ 1.3 µM) | 0.78 (≈ 1.3 µM) | 50 (≈ 83.4 µM) | 
